{"source": "ChEMBL document CHEMBL4706515", "about": "“Discovery of new [1,2,4] Triazolo[1,5-a]Pyrimidine derivatives that Kill gastric cancer cells via the mitochondria pathway” (Eur J Med Chem, 2020)", "key": {"SGC-7901 [1]": {"system": "SGC-7901", "assay": "Induction of apoptosis in human SGC-7901 cells assessed as late apoptotic cells at 2.5 uM measure after 24 hrs by Annexin-PI staining based Flowcytometry method (reference value: 1.29%)", "type": "functional"}, "[2]": {"assay": "Selectivity index, ratio of GI50 for human MGC803 to GI50 for human GES-1 cells"}, "SGC-7901 [3]": {"system": "SGC-7901", "assay": "Induction of apoptosis in human SGC-7901 cells assessed as late apoptotic cells at 5 uM measure after 24 hrs by Annexin-PI staining based Flowcytometry method (reference value: 1.29%)", "type": "functional"}, "SGC-7901 [4]": {"system": "SGC-7901", "assay": "Induction of apoptosis in human SGC-7901 cells assessed as late apoptotic cells at 0.625 uM measure after 24 hrs by Annexin-PI staining based Flowcytometry method (reference value: 1.29%)", "type": "functional"}, "MGC-803 [5]": {"system": "MGC-803", "assay": "Induction of mitochondrial membrane potential loss in human MGC-803 cells at 10 uM measured after 24 hrs by JC-1 staining based flow cytometry method (reference value: 0.344%)", "conditions": "Mitochondria"}, "SGC-7901 [6]": {"system": "SGC-7901", "assay": "Induction of apoptosis in human SGC-7901 cells assessed as early apoptotic cells at 10 uM measure after 24 hrs by Annexin-PI staining based Flowcytometry method (reference value: 2.68%)", "type": "functional"}, "SGC-7901 [7]": {"system": "SGC-7901", "assay": "Induction of apoptosis in human SGC-7901 cells assessed as necrotic cells at 2.5 uM measure after 24 hrs by Annexin-PI staining based Flowcytometry method (reference value: 1.16%)", "type": "functional"}, "MGC-803 [8]": {"system": "MGC-803", "assay": "Induction of apoptosis in human MGC-803 cells assessed as necrotic cells at 2.5 uM measure after 24 hrs by Annexin-PI staining based Flowcytometry method (reference value: 3.13%)", "type": "functional"}, "MGC-803 [9]": {"system": "MGC-803", "assay": "Induction of apoptosis in human MGC-803 cells assessed as increase in ROS production preincubated for 1 hr with NAC followed by compound addition at 5 uM measured after 24 hrs by DCHF-DA staining based Flowcytometry method", "type": "functional, cell-based"}, "MGC-803 [10]": {"system": "MGC-803", "assay": "Inhibition of cell proliferation in human MGC-803 cells at 5 uM measured by SRB assay", "type": "functional, cell-based", "conditions": "time 72.0 hrs"}, "SGC-7901 [11]": {"system": "SGC-7901", "assay": "Induction of apoptosis in human SGC-7901 cells assessed as necrotic cells at 0.625 uM measure after 24 hrs by Annexin-PI staining based Flowcytometry method (reference value: 1.16%)", "type": "functional"}, "SGC-7901 [12]": {"system": "SGC-7901", "assay": "Induction of apoptosis in human SGC-7901 cells assessed as necrotic cells at 5 uM measure after 24 hrs by Annexin-PI staining based Flowcytometry method (reference value: 1.16%)", "type": "functional"}, "SGC-7901 [13]": {"system": "SGC-7901", "assay": "Induction of apoptosis in human SGC-7901 cells assessed as early apoptotic cells at 0.625 uM measure after 24 hrs by Annexin-PI staining based Flowcytometry method (reference value: 2.68%)", "type": "functional"}, "MGC-803 [14]": {"system": "MGC-803", "assay": "Cytotoxicity against human MGC-803 cells assessed as inhibition of cell viability incubated for 1 hr with Z-VAD-FMK followed by addition of compound", "type": "functional, cell-based"}, "SGC-7901 [15]": {"system": "SGC-7901", "assay": "Inhibition of cell proliferation in human SGC-7901 cells at 2.5 uM measured after 72 hrs by SRB assay", "type": "functional, cell-based"}, "MGC-803 [16]": {"system": "MGC-803", "assay": "Antiproliferative activity against human MGC-803 cells assessed as inhibition of cell growth at measured after 72 hrs by SRB assay", "type": "functional"}, "MGC-803 [17]": {"system": "MGC-803", "assay": "Induction of apoptosis in human MGC-803 cells assessed as decrease in accumulation of cleaved PARP preincubated with Chloroquine measured after 24 hrs by western blot assay", "type": "functional, cell-based"}, "SGC-7901 [18]": {"system": "SGC-7901", "assay": "Induction of apoptosis in human SGC-7901 cells assessed as early apoptotic cells at 1.25 uM measure after 24 hrs by Annexin-PI staining based Flowcytometry method (reference value: 2.68%)", "type": "functional"}, "SGC-7901 [19]": {"system": "SGC-7901", "assay": "Induction of apoptosis in human SGC-7901 cells assessed as viable cells at 2.5 uM measure after 24 hrs by Annexin-PI staining based Flowcytometry method (reference value: 94.9%)", "type": "functional", "conditions": "read-out: Activity"}, "MGC-803 [20]": {"system": "MGC-803", "assay": "Induction of apoptosis in human MGC-803 cells assessed as accumulation of cleaved caspase 3 protein at 0.625 to 10 uM measured after 24 hrs by western blot assay", "type": "functional, cell-based", "conditions": "dose 0.625-10 µM"}, "MGC-803 [21]": {"system": "MGC-803", "assay": "Cell cycle arrest in human MGC-803 cells assessed as accumulation of cells in G2/M phase at 10 uM measured after 24 hrs by PI staining based flow cytometry", "type": "functional"}, "MGC-803 [22]": {"system": "MGC-803", "assay": "Induction of apoptosis in human MGC-803 cells assessed as late apoptotic cells at 2.5 uM measure after 24 hrs by Annexin-PI staining based Flowcytometry method (reference value: 7.06%)", "type": "functional"}, "MGC-803 [23]": {"system": "MGC-803", "assay": "Cell cycle arrest in human MGC-803 cells assessed as accumulation of cells in G2/M phase at 5 uM measured after 24 hrs by PI staining based flow cytometry", "type": "functional"}, "MGC-803 [24]": {"system": "MGC-803", "assay": "Induction of apoptosis in human MGC-803 cells assessed as increase in ROS production at 10 uM measured after 24 hrs by DCHF-DA staining based Flowcytometry method", "type": "functional, cell-based"}, "MGC-803 [25]": {"system": "MGC-803", "assay": "Induction of morphological changes in human MGC-803 cells assessed as cell shrinkage at 5 uM incubated for 1 hrs by bright field microscopic analysis", "type": "functional, cell-based"}, "MGC-803 [26]": {"system": "MGC-803", "assay": "Induction of apoptosis in human MGC-803 cells assessed as early apoptotic cells at 1.25 uM measure after 24 hrs by Annexin-PI staining based Flowcytometry method (reference value: 9.8%)", "type": "functional"}, "MGC-803 [27]": {"system": "MGC-803", "assay": "Induction of apoptosis in human MGC-803 cells assessed as early apoptotic cells at 0.625 uM measure after 24 hrs by Annexin-PI staining based Flowcytometry method (reference value: 9.8%)", "type": "functional"}, "MGC-803 [28]": {"system": "MGC-803", "assay": "Induction of morphological changes in human MGC-803 cells assessed as cell shrinkage at 10 uM incubated for 1 hrs by bright field microscopic analysis", "type": "functional, cell-based"}, "MGC-803 [29]": {"system": "MGC-803", "assay": "Induction of apoptosis in human MGC-803 cells assessed as viable cells at 10 uM measure after 24 hrs by Annexin-PI staining based Flowcytometry method (reference value: 80%)", "type": "functional", "conditions": "read-out: Activity"}, "MGC-803 [30]": {"system": "MGC-803", "assay": "Induction of apoptosis in human MGC-803 cells assessed as late apoptotic cells at 10 uM measure after 24 hrs by Annexin-PI staining based Flowcytometry method (reference value: 7.06%)", "type": "functional"}, "MGC-803 [31]": {"system": "MGC-803", "assay": "Cytotoxicity against human MGC-803 cells assessed as inhibition of cell viability incubated for 1 hr with Z-LEHD-FMK followed by addition of compound", "type": "functional, cell-based"}, "SGC-7901 [32]": {"system": "SGC-7901", "assay": "Inhibition of cell proliferation in human SGC-7901 cells at 5 uM measured after 72 hrs by SRB assay", "type": "functional, cell-based"}, "SGC-7901 [33]": {"system": "SGC-7901", "assay": "Induction of apoptosis in human SGC-7901 cells assessed as viable cells at 5 uM measure after 24 hrs by Annexin-PI staining based Flowcytometry method (reference value: 94.9%)", "type": "functional", "conditions": "read-out: Activity"}, "MGC-803 [34]": {"system": "MGC-803", "assay": "Induction of apoptosis in human MGC-803 cells assessed as necrotic cells at 10 uM measure after 24 hrs by Annexin-PI staining based Flowcytometry method (reference value: 3.13%)", "type": "functional"}, "MGC-803 [35]": {"system": "MGC-803", "assay": "Induction of apoptosis in human MGC-803 cells assessed as viable cells at 1.25 uM measure after 24 hrs by Annexin-PI staining based Flowcytometry method (reference value: 80%)", "type": "functional", "conditions": "read-out: Activity"}, "MGC-803 [36]": {"system": "MGC-803", "assay": "Inhibition of cell proliferation in human MGC-803 cells at 2.5 uM measured after 72 hrs by SRB assay", "type": "functional, cell-based"}, "MGC-803 [37]": {"system": "MGC-803", "assay": "Induction of mitochondrial membrane potential loss in human MGC-803 cells at 1.25 uM measured after 24 hrs by JC-1 staining based flow cytometry method (reference value: 0.344%)", "conditions": "Mitochondria"}}, "note": "Active and inactive are the calls of the source. No cut-off for these calls is given here."}
{"compound": "Cc1cc(Nc2ccc(C(=O)/C=C/c3cccc(Br)n3)cc2)n2nc(SCc3nc4ccccc4[nH]3)nc2n1", "values": [{"measurement": "Activity", "setting": "SGC-7901 [1]", "value": 5.53, "unit": "%"}, {"measurement": "RatioGI50", "setting": "[2]", "value": 6.9}, {"measurement": "Activity", "setting": "SGC-7901 [3]", "value": 29.8, "unit": "%"}, {"measurement": "Activity", "setting": "SGC-7901 [4]", "value": 1.55, "unit": "%"}, {"measurement": "Activity", "setting": "MGC-803 [5]", "value": 10.7, "unit": "%"}, {"measurement": "Activity", "setting": "SGC-7901 [6]", "value": 8.54, "unit": "%"}, {"measurement": "Activity", "setting": "SGC-7901 [7]", "value": 1.15, "unit": "%"}, {"measurement": "Activity", "setting": "MGC-803 [8]", "value": 1.75, "unit": "%"}, {"measurement": "Activity", "setting": "MGC-803 [9]", "value": "inactive"}, {"measurement": "inhibition", "setting": "MGC-803 [10]", "value": "Active"}, {"measurement": "Activity", "setting": "SGC-7901 [11]", "value": 1.96, "unit": "%"}, {"measurement": "Activity", "setting": "SGC-7901 [12]", "value": 0.586, "unit": "%"}, {"measurement": "Activity", "setting": "SGC-7901 [13]", "value": 2.25, "unit": "%"}, {"measurement": "inhibition", "setting": "MGC-803 [14]", "value": "inactive"}, {"measurement": "inhibition", "setting": "SGC-7901 [15]", "value": "inactive"}, {"measurement": "GI50", "setting": "MGC-803 [16]", "value": 640, "unit": "nM"}, {"measurement": "Activity", "setting": "MGC-803 [17]", "value": "inactive"}, {"measurement": "Activity", "setting": "SGC-7901 [18]", "value": 1.59, "unit": "%"}, {"measurement": "viability at 2.5 µM", "setting": "SGC-7901 [19]", "value": 88.3, "unit": "%"}, {"measurement": "Activity", "setting": "MGC-803 [20]", "value": "Active"}, {"measurement": "Activity", "setting": "MGC-803 [21]", "value": "Active"}, {"measurement": "Activity", "setting": "MGC-803 [22]", "value": 4.7, "unit": "%"}, {"measurement": "Activity", "setting": "MGC-803 [23]", "value": "Active"}, {"measurement": "Activity", "setting": "MGC-803 [24]", "value": "Active"}, {"measurement": "Activity", "setting": "MGC-803 [25]", "value": "Active"}, {"measurement": "Activity", "setting": "MGC-803 [26]", "value": 7.21, "unit": "%"}, {"measurement": "Activity", "setting": "MGC-803 [27]", "value": 4.92, "unit": "%"}, {"measurement": "Activity", "setting": "MGC-803 [28]", "value": "Active"}, {"measurement": "viability at 10 µM", "setting": "MGC-803 [29]", "value": 45.3, "unit": "%"}, {"measurement": "Activity", "setting": "MGC-803 [30]", "value": 36.4, "unit": "%"}, {"measurement": "inhibition", "setting": "MGC-803 [31]", "value": "inactive"}, {"measurement": "inhibition", "setting": "SGC-7901 [32]", "value": "Active"}, {"measurement": "viability at 5 µM", "setting": "SGC-7901 [33]", "value": 53, "unit": "%"}, {"measurement": "Activity", "setting": "MGC-803 [34]", "value": 8.84, "unit": "%"}, {"measurement": "viability at 1.25 µM", "setting": "MGC-803 [35]", "value": 88.6, "unit": "%"}, {"measurement": "inhibition", "setting": "MGC-803 [36]", "value": "inactive"}, {"measurement": "Activity", "setting": "MGC-803 [37]", "value": 10.1, "unit": "%"}]}
